Experimental data published in ChEMBL document CHEMBL1201862, “PubChem BioAssay data set” (2004).
Active and inactive are the calls of the source.

Assays:
[1] = microbe, parasite or virus in culture; format: functional; conditions: Mycobacterium tuberculosis
[2] = test system: Streptococcus sp. 'group A'; test: growth inhibition of control SK(-) GAS strain, dose response, counter-screen for streptokinase expression inhibitor project, luminescence, kanamycin, BacTiterGlo, confirmation (AID 1900); format: functional, organism-based
[3] = target: T1, Streptokinase A (Streptococcus pyogenes serotype M1, UniProt P10520); test: S. pyogenes streptokinase expression inhibitors, potency, dose response, plasminogen activation absorbance, OD405 (AID 1914); format: functional, Streptococcus pyogenes M1 GAS;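 also: secreted streptokinase activity via plasminogen activation per viability signal from cell pellet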
T1 sequence (P10520 whole entry): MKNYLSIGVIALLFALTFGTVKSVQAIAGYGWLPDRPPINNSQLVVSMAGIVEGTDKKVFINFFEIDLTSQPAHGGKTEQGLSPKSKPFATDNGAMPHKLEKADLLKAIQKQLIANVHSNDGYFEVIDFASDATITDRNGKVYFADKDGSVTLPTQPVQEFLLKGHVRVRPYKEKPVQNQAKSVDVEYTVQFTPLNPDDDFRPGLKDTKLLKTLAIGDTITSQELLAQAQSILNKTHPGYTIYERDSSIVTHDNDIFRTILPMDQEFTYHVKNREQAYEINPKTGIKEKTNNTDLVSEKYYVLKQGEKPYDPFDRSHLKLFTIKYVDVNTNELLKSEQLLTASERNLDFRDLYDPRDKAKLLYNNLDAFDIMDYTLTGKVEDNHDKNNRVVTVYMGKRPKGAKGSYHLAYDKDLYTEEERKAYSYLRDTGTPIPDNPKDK

[4] = test system: Streptococcus; test: Group A Streptococcus viability loss, dose response, counter-screen for streptokinase expression inhibitor project, luminescence, BacTiterGlo (AID 1915); format: functional, organism-based;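 also: potency for reduction of bacterial viability or growth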
[5] = test system: INS1; test: beta cell apoptosis inhibitors, cytokine rescue, dose response, luminescence, retest (AID 449756); format: functional, cell-based; conditions: Rattus norvegicus;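 also: cell death triggered by IL-1 beta plus TNF-alpha plus IFN-gamma mixture; protective hits raise ATP signal compared with cytokine alone wells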
[6] = P. falciparum Dd2 growth inhibitors, dose response, SYBR Green, cherry-picked samples (AID 1159567); format: functional, cell-based
[7] = inhibitors of intracellular T. cruzi replication, confirmation, NIH3T3 host cells, beta-gal luminescence (AID 2044); format: functional, cell-based;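 also: intracellular parasites grown in NIH/3T3 mouse fibroblasts as host cells; luminescent beta-galactosidase reporter signal from transgenic T. cruzi replicating inside host cells; inhibitors lower the luminescence signal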
[8] = cytotoxicity toward NIH3T3 fibroblasts, dose response, counter-screen, cell-based, ATP luminescence, mouse fibroblasts (AID 2010); format: functional;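 also: cells exposed to compound for about 90 hours before reading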
[9] = target: T2, Rac GTPase-activating protein 1 (Homo sapiens, UniProt Q9H0H5); test: MgcRacGAP GTPase-activating activity inhibitors, confirmation, biochemical, ADP Hunter fluorescence, primary and confirmatory (AID 624330); format: functional
T2 sequence (Q9H0H5 whole entry): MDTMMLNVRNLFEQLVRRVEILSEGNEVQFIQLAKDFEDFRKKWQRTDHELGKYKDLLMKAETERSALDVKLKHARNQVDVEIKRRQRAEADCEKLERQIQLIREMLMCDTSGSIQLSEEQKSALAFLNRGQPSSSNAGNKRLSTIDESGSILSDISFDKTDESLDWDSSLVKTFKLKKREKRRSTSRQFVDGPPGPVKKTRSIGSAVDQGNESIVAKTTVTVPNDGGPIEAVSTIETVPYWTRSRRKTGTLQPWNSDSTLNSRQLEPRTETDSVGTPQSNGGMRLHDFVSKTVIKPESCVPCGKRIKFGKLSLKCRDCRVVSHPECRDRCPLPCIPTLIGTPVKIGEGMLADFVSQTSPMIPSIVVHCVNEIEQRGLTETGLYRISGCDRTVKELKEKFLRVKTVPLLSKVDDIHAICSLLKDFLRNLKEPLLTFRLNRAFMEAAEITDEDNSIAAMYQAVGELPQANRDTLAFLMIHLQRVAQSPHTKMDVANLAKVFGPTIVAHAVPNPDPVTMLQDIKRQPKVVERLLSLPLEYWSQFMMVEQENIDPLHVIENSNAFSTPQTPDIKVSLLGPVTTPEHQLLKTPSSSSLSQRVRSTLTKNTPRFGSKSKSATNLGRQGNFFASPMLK

[10] = target: Cytochrome P450 2D6 (Homo sapiens, UniProt P10635);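 also: CYP2D6 member of a cytochrome P450 panel assay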
[11] = target: T3, Cytochrome P450 1A2 (Homo sapiens, UniProt P05177);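 also: PubChem cytochrome P450 panel assay, CYP1A2 panel member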
T3 sequence (P05177 whole entry): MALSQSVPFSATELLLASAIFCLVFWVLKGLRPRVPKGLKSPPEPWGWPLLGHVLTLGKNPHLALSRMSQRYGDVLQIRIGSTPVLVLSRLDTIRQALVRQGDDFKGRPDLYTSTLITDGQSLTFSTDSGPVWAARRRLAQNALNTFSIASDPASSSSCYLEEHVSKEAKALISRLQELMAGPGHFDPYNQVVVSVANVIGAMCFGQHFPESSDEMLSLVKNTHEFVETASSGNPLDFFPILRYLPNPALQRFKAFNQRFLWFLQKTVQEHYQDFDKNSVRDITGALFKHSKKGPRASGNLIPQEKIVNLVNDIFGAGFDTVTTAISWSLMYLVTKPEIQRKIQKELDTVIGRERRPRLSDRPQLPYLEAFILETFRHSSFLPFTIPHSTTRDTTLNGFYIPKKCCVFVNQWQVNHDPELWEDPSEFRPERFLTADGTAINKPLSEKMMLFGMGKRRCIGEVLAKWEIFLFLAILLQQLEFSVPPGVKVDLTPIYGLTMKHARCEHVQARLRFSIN

[12] = target: Cytochrome P450 3A4 (Homo sapiens, UniProt P08684);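 also: CYP3A4 tested as one member of a cytochrome P450 panel screen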
[13] = target: T4, Heat shock factor protein 1 (Mus musculus, UniProt P38532); test: HSF1 potentiators in luciferase reporter cells, confirmation, cell-based, NIH3T3, luminescence, dose retest (AID 435004); format: functional;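 also: stress induced by proteasome inhibitor MG132 added 30 min after compound; luciferase reporter driven by HSF1 response element in NIH3T3 cells; actives raise luminescence as potentiators of the MG132 stress response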
T4 sequence (P38532 whole entry): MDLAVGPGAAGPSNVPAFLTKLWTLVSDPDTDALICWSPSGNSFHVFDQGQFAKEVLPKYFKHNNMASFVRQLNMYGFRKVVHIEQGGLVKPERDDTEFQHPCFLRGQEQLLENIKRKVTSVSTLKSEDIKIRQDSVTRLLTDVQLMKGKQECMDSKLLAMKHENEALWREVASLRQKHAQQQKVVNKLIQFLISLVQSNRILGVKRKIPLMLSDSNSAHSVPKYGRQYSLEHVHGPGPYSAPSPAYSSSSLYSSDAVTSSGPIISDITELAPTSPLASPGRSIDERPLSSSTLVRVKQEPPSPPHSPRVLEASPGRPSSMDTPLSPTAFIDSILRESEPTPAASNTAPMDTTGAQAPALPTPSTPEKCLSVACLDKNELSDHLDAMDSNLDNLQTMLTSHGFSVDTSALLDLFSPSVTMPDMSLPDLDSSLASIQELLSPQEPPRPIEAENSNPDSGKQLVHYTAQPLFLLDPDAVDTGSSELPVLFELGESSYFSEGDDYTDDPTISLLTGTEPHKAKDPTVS

[14] = target: T5, Replicative DNA helicase DnaB (Mycobacterium tuberculosis, UniProt P9WMR3); test: DnaB intein splicing inhibitors, dose response, biochemical, cell-free fluorescence (AID 449749); format: functional
T5 sequence (P9WMR3 whole entry): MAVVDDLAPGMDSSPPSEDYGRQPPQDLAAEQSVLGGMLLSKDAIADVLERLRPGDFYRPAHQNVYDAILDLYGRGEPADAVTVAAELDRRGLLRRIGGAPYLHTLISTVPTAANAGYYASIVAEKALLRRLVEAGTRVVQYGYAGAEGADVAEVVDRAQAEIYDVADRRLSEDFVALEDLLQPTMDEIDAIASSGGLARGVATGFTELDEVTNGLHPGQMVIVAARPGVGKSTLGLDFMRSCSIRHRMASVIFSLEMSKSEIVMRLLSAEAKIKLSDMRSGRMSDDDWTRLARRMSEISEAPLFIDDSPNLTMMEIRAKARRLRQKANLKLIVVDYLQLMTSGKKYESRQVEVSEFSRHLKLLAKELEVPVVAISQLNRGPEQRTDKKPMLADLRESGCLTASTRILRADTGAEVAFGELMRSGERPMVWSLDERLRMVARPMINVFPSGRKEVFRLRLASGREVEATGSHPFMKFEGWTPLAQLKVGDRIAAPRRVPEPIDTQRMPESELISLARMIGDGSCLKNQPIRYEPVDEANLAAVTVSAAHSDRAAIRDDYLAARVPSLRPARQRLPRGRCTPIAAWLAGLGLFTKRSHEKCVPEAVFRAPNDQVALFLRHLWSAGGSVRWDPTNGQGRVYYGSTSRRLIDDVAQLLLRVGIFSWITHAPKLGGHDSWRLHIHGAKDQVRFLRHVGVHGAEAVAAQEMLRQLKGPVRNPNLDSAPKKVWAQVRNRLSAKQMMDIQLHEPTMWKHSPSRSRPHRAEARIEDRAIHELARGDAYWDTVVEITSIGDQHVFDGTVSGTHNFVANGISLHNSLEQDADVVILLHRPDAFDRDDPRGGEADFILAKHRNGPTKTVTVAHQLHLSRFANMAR

[15] = target: T6, Protein RecA (Mycobacterium tuberculosis, UniProt P9WHJ3); test: Fluorescence Cell-Free Homogeneous Dose Retest to Identify Inhibitors of RecA-Intein Splicing Activity. [Related pubchem assays (depositor defined):AID2097, AID2223, AID489010, AID492950]; format: functional
T6 sequence (P9WHJ3 whole entry): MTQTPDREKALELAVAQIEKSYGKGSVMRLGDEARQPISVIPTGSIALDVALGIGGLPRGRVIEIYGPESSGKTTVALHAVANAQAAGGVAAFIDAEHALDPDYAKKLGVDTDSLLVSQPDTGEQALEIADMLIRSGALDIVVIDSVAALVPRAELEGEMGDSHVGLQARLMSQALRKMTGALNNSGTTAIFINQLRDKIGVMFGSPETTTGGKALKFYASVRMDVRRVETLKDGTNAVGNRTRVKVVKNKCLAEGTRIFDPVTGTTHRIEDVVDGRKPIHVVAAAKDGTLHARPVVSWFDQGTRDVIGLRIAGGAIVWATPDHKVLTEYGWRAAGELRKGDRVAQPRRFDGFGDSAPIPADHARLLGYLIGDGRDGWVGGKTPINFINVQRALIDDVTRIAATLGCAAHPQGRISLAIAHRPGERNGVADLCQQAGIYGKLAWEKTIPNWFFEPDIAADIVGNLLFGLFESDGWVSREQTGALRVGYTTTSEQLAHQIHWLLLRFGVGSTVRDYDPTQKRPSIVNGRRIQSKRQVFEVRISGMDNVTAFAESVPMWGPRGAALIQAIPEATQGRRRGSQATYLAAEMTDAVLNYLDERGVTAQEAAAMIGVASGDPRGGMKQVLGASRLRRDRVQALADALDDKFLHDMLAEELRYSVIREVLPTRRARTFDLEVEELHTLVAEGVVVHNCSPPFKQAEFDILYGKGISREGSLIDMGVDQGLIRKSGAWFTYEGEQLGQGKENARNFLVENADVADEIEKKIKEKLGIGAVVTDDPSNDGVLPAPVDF

Chain of Cytochrome P450 3A4 (P08684 whole entry): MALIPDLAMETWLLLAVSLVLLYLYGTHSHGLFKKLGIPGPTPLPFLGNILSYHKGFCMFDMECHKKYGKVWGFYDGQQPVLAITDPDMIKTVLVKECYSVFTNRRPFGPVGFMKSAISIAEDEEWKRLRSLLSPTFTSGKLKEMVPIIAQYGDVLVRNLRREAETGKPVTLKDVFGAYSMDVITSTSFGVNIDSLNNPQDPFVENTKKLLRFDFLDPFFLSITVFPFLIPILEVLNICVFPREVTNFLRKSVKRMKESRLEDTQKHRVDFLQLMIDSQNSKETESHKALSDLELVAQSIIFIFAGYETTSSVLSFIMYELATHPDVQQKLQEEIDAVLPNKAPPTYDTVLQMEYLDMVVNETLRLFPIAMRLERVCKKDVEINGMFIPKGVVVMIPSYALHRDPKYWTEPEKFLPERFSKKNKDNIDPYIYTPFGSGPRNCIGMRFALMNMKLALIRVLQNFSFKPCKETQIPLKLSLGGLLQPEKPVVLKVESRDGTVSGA
Chain of Cytochrome P450 2D6 (P10635 whole entry): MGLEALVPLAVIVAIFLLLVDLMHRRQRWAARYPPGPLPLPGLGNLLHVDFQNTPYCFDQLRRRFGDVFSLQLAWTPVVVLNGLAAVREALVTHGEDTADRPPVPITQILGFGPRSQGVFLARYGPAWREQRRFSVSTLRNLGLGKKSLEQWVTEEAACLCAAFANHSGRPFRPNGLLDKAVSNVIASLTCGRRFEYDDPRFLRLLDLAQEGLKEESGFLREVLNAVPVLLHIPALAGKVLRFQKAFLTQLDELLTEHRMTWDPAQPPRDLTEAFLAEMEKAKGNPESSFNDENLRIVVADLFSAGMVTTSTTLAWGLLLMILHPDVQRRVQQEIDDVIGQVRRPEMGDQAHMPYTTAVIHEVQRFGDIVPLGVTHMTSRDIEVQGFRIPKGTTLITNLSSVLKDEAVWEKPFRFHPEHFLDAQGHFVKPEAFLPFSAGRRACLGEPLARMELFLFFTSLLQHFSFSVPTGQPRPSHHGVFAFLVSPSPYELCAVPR

Compound: O=C1N=C(Nc2ccccc2)S/C1=C\C=C\c1ccco1
- CC50 [1]: 39.3 µM (active)

Compound: CCCCCCCCCCCCC(NC(C)=O)(C(=O)OCC)C(=O)OCC
- EC50 [2]: 6.45 µM (active)
- EC50 [3]: > 150 µM (not active)
- EC50 [4]: 8.56 µM (active)

Compound: COCCn1nnnc1C(c1cc2cc(OC)ccc2nc1O)N1CCC(Cc2ccccc2)CC1 (stereo unspecified)
- CC50 [1]: > 40 µM (active)

Compound: COc1ccc(-n2c(=S)[nH]c3cc(C(=O)Nc4ccccc4OC)ccc3c2=O)cc1
- AC50 [5]: 6.62 µM (active)

Compound: CC1(C)S[C@@H]2[C@H](NC(=O)COc3ccccc3)C(=O)N2C1C(=O)OCc1cc2ccccc2n1S(=O)(=O)c1ccccc1 (stereo partly specified)
- EC50 [2]: 6.32 µM (active)
- EC50 [3]: 23.6 µM (active)
- EC50 [4]: 39.9 µM (active)

Compound: COc1cccc(-c2ccc([C@H]3[C@H](CO)N4CCCCN(CC5CC5)C[C@@H]34)cc2)c1
- AC50 [6]: 5.84 µM (active)

Compound: COCC/N=C1/Sc2nc3ccc(C)cc3cc2CN1Cc1ccco1
- CC50 [1]: > 40 µM (active)

Compound: CC12CCC(C(=O)Nc3cccc(Cl)c3Cl)([C@H](Br)C1=O)C2(C)C (stereo partly specified)
- EC50 [2]: > 150 µM (not active)
- EC50 [3]: > 150 µM (not active)
- EC50 [4]: > 150 µM (not active)

Compound: CCn1c2ccccc2c2cc(CN3CCN(Cc4cc(OC)ccc4O)CC3)ccc21
- EC50 [7]: 1.21 µM (active)
- CC50 [1]: > 40 µM (active)
- EC50 [8]: > 60 µM (not active)

Compound: CC(C(=O)N1CCCc2ccccc21)N1CCN(c2ccccn2)CC1 (stereo unspecified)
- IC50 [9]: 93.9 µM (active)

Compound: Cc1oc(C(C)(C)C)cc1C(=O)N1CCN(C(c2ccccc2)c2ccccc2)CC1
- EC50 [2]: 2.64 µM (active)
- EC50 [3]: 17.6 µM (active)
- EC50 [4]: 16.4 µM (active)

Compound: CCCCCCCCSc1nnc(CSc2nc3nc(C)cc(C)n3n2)o1
- AC50 [5]: 14.9 µM (active)
- AC50 [10]: 28.2 µM (inconclusive)
- AC50 [11]: 31.6 µM (inconclusive)
- AC50 [12]: 35.5 µM (inconclusive)

Compound: COc1ccccc1NC(=O)Nc1nc(CC(=O)Nc2cc(F)ccc2F)cs1
- EC50 [2]: 11.5 µM (active)
- EC50 [3]: > 150 µM (not active)
- EC50 [4]: 30.9 µM (active)

Compound: O=C(N/C(=C\c1ccc(O)cc1)C(=O)N1CCCCC1)c1ccccc1
- IC50 [9]: 47.3 µM (active)

Compound: Cc1ccc(C(C)(C)C)cc1S(=O)(=O)N1CCC(C(=O)N2CCN(c3ccc(O)cc3)CC2)CC1
- IC50 [9]: 99.1 µM (active)

Compound: C/C(=N/Nc1nc(-c2ccccc2)cc(-c2ccc(F)cc2)n1)c1cccc(N)c1
- AC50 [5]: 3.64 µM (active)

Compound: COc1ccc(NC2CCCN(C(=O)c3cc(C)nc4cc(F)ccc34)C2)cc1 (stereo unspecified)
- IC50 [9]: 120 µM (active)

Compound: CN1CC(=O)N(CC(=O)Nc2ccc(N(C)C)cc2)c2ccccc2C1=O
- IC50 [9]: 56.7 µM (active)

Compound: O=[N+]([O-])c1cc(Cl)c(O)c(-[n+]2c(-c3ccccc3)cc(-c3ccccc3)cc2-c2ccccc2)c1.[O-][Cl+3]([O-])([O-])[O-]
- CC50 [1]: > 40 µM (active)

Compound: O=C(NNC(=S)NC(=O)c1ccco1)c1ccc(NC(=O)c2ccccc2)cc1
- EC50 [2]: 0.973 µM (active)
- EC50 [3]: > 150 µM (not active)
- EC50 [4]: 9.14 µM (active)

Compound: CCOC(=O)c1nnc(-c2ccccc2)nc1Sc1ccccc1Cl
- CC50 [1]: > 40 µM (active)
- EC50 [13]: 8.48 µM (active)
- AC50 [14]: 2.36 µM (active)
- EC50 [15]: 0.686 µM (active)
